# Data reported in PubChem BioAssay AID2060513 (Molecular Pharmacology Branch, DTP, NCI, 2025).
# Values joined by “and” are separate entries in the source; they are usually repeats but may differ in a detail not shown here. Identical values can stand only once.
# Tested on: 299254-011-R-J1-PDC complex spheroids viability
# Assay: Anticancer human tumor 299254-011-R-J1-PDC patient-derived melanoma cell line growth inhibition [GQUAD]
# Settings: for viability, T/C: stronger effect = lower value
# Excerpt: DNA G-quadruplex Stabilizer Agents in Combinations in Complex Spheroids
# A high-throughput screen of multi-cell type tumor spheroids was designed to identify active combinations of DNA G-quadruplex stabilizer agents and targeted small molecules. Complex spheroids include a stromal component modeled by human endothelial cells (HUVEC) and fibroblasts modeled by human mesenchymal stem cells (MSCs). The concentration ranges selected for each drug and investigational agent were based upon clinically achievable concentrations if the clinical Cmax of the agent was known.
# Compounds. The drugs and investigational agents: pidnarulex (CX-5461; NSC782164), APTO-253 (NSC789042), BRACO-19 (NSC847499), peposertib (NSC802822), ceralasertib (NSC780249), elimusertib (NSC800525), camonsertib (NSC841442), AZD-1390 (NSC803789), olaparib (NSC753686), talazoparib (NSC767125), ART-558 (NSC835418), sotorasib (NSC818433), MRTX-1133 (NSC836407), SN-38 (NSC673596), topotecan (NSC609699), etoposide (NSC141540), doxorubicin (NSC123127), gemcitabine (NSC613327), 5-fluorouracil (NSC19893), paclitaxel (NSC125973), vemurafenib (NSC761431), panobinostat (NSC761190), R-306465 (JNJ-16241199; NSC773264), adavosertib (NSC754352), TP-3654 (NSC805149), carboplatin (NSC241240), KSQ-4279 (NSC840948), and staurosporine (NSC755774) were obtained from the National Cancer Institute (NCI) Developmental Therapeutics Program Chemical Repository (34). The FDA-approved anticancer drug set is available from the NCI Developmental Therapeutics Program. […] The stock solutions were prepared in dimethyl sulfoxide (DMSO, Sigma-Aldrich, St. Louis, MO, cat. D2650) at 800-fold the tested concentration and stored at -70 degrees C prior to their use. All drugs and investigational agents were tested over a range starting from a high concentration at or near the clinical Cmax and decreasing in half-log increments. If the clinical Cmax for an agent had not been determined, the highest concentration tested was 10 microM.
# 2.3 Cell Culture. All cells were maintained in an incubator at 37 degrees C and 5% CO2 with 95% humidity. The PDC lines were cultured according to standard operating procedures established by the NCI PDMR. All PDCs were thawed and cultured in Matrigel-coated flasks prepared with a working solution of 1X Ham's F-12 nutrient mix, without supplementation (Invitrogen, cat. 11765054), 100 U/mL penicillin-streptomycin (Invitrogen, cat. 15140122), and 2.5% Matrigel (Corning Inc., cat. 354248) for the first three passages. The 857933-349-R-J2-PDC line was cultured in 6C/Colon 1B media, which includes advanced DMEM/F-12 (Thermo Fisher Scientific, cat. 12634028), 10 mM HEPES (Thermo Fisher Scientific, cat. 15630080), 1X GlutaMAX supplement (Thermo Fisher Scientific, cat. 35050061), 0.1 mg/mL primocin (InvivoGen, cat. ant-pm-2), 10% defined fetal bovine serum, heat inactivated (HyClone Laboratories Inc., cat. SH30070.03HI), 50% L-WRN conditioned media (ATCC, cat. CRL-3276), 1.25 mM N-Acetyl-L-cysteine (Sigma-Aldrich, cat. A9165), 10 mM nicotinamide (Sigma-Aldrich, cat. N0636), 1X B-27 supplement (Thermo Fisher Scientific, cat. 17504044), 1X N-2 supplement (Thermo Fisher Scientific, cat. 17502048), 10 microM Y-27632 dihydrochloride (Tocris Bioscience, cat. 1254), and 50 ng/mL human EGF recombinant protein (Thermo Fisher Scientific, cat. PHG0311). The 485176-168-R4-J1-PDC line was cultured in Panc media, which includes all 6C/Colon 1B media components plus 100 ng/mL human FGF-10 (Thermo Fisher Scientific, cat. 100-26), 500 nM SB-431542 (Selleckchem, cat. S1067), and gastrin (Tocris, cat. 3006).
# […]
# 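Also: spheroids exposed to the agents for seven days before readout.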
# 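For viability, T/C in this document: percent viability relative to DMSO vehicle control wells = 100%.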
IC50 (curve of compound),"IC50 (compound alone, run of 02/20/2024) [nM]","IC50 (compound alone, run of 02/26/2024) [nM]",Compound,"viability, T/C (compound 0.0316 µM)","viability, T/C (compound 0.1 µM)","viability, T/C (compound 0.316 µM)","viability, T/C (compound 1 µM)","viability, T/C (compound 3.16 µM)","viability, T/C (compound 10 µM)"
1580 nM and 1570 nM and 1380 nM,,,C=CCn1c(=O)c2cnc(Nc3ccc(N4CCN(C)CC4)cc3)nc2n1-c1cccc(C(C)(C)O)n1,114% and 117% and 102%,98.4% and 92.5% and 100%,87.5% and 73% and 83.4%,60% and 62% and 52.8%,32.2% and 34% and 37.9%,36.5% and 32.4% and 20.3%
> 10000 nM,,,O=c1[nH]cc(F)c(=O)[nH]1,117% and 81.7% and 100%,110% and 105% and 96.5%,114% and 113% and 103%,103% and 86.2% and 122%,114% and 113% and 83.2%,103% and 85.3% and 87.8%
> 10000 nM,,,C=CC(=O)N1CCN(c2nc(=O)n(-c3c(C)ccnc3C(C)C)c3nc(-c4c(O)cccc4F)c(F)cc23)C(C)C1 (stereo not drawn),79% and 95.8% and 88.2%,57.3% and 82.7% and 63.5%,81% and 65.1% and 59%,59.5% and 59.8% and 59%,60.7% and 61% and 69.7%,68.5% and 69.6% and 66.1%

# The remaining lines, values behind:
Compound,IC50 (curve of compound),"IC50 (compound alone, run of 02/20/2024) [nM]","IC50 (compound alone, run of 02/26/2024) [nM]","viability, T/C (compound 0.0316 µM)","viability, T/C (compound 0.1 µM)","viability, T/C (compound 0.316 µM)","viability, T/C (compound 1 µM)","viability, T/C (compound 3.16 µM)","viability, T/C (compound 10 µM)"
CC(=O)O[C@H]1C(=O)[C@@]2(C)[C@H]([C@H](OC(=O)c3ccccc3)[C@]3(O)C[C@H](OC(=O)[C@H](O)[C@@H](NC(=O)c4ccccc4)c4ccccc4)C(C)=C1C3(C)C)[C@]1(OC(C)=O)CO[C@@H]1C[C@@H]2O,483 nM and 423 nM and 306 nM,,,102% and 92% and 92.4%,86.3% and 73.8% and 59%,60.6% and 55.7% and 63.9%,32% and 37.8% and 26.7%,18.9% and 18.2% and 24.1%,12% and 17.6% and 19.5%
CC(C)(O)C1CCC(Nc2ccc3ncc(-c4cccc(C(F)(F)F)c4)n3n2)CC1 (stereo not drawn),> 10000 nM,,,108% and 89.2% and 122%,113% and 90% and 91.5%,91.8% and 99.5% and 99.2%,98% and 96.9% and 84.3%,95.5% and 102% and 70.9%,119% and 110% and 103%
CC(C)n1c(=O)n(C)c2cnc3cc(F)c(-c4ccc(OCCCN5CCCCC5)nc4)cc3c21,> 10000 nM and 9520 nM and 9660 nM,,,104% and 100% and 97%,87.8% and 78.1% and 79%,102% and 101% and 90.2%,104% and 76.4% and 83.5%,93% and 75% and 78.9%,55.8% and 48.2% and 48.6%
Cc1[nH]c2ccc(F)cc2c1-c1nc2c3cccnc3c3ncccc3c2[nH]1,,> 10000,> 10000,99.1% [middle of 12 runs],,95.6% [middle of 12 runs],,,
COc1cc(C2c3cc4c(cc3C(OC3OC5COC(C)OC5C(O)C3O)C3COC(=O)C23)OCO4)cc(OC)c1O (stereo not drawn),> 10000 nM,,,102% and 90.8% and 122%,91.4% and 97.2% and 87.9%,85.3% and 106% (2×),97.1% and 91.9% and 92.2%,75.5% and 101% and 99%,94.6% and 84.8% and 92.6%
